Laboratory results from patent US9241976B2, “Use of HDL-related molecules to treat and prevent proinflammatory conditions” (THE REGENTS OF THE UNIVERSITY OF CALIFORNIA, priority 2011, dated 2016).

How the values were obtained:
HIF-1α [1] = assay: ID8 flank tumor model, HIF-1α immunohistochemistry; assay type: in vivo, mouse; settings: C57BL/6J mice, ID8 tumors; 10 mg/kg s.c. daily for 3 weeks; vs sc-4F
Procedure: Nine-week-old C57BL/6J female mice were given a 0.5-ml subcutaneous injection of 5×10^6 ID8 cells prepared as a single cell suspension in PBS mixed with an equal volume of cold Matrigel (BD Biosciences, San Jose, Calif.). After 2 weeks, mice started to receive scrambled 4F peptide (sc-4F) or L-4F (10 mg/kg) by subcutaneous injection at a site distant from the site where the ID8 cells were injected daily for 3 weeks. After 3 weeks, the mice were sacrificed for tumor collection and further analyses.
Frozen tumor tissues were sectioned at a thickness of 5 μm and fixed with cold acetone for 10 min at −20° C. The sections were blocked with 10% normal goat serum and 4% bovine serum albumin prepared in PBS for 3 h and immediately incubated with rabbit anti-mouse polyclonal HIF-1α antibody (1:200) (Abcam Inc.) or rat anti-mouse monoclonal CD31 antibody (1:25) (Abcam Inc.) overnight at 4° C. The sections were then incubated with corresponding biotinylated secondary antibodies (Vector Laboratories) for 30 min at room temperature followed by incubation with Vectastain ABC Elite reagents (Vector Laboratories) to visualize the staining. Finally, sections were lightly counterstained with hematoxylin, dehydrated, and coverslipped with Vecta-Mount solution (Vector Laboratories).

HIF-1α [2] = assay: Hypoxia response element (HRE) luciferase reporter assay in OV2008 cells; assay type: cell-based, human
Procedure: In brief, OV2008 cells were plated at 2×10^5 cells per well in a six-well plate and grown in complete media overnight. Then, pGL3-Epo-hypoxia response element (HRE)-Luc plasmid was transfected into cells by using Lipofectamine 2000 (Invitrogen). After 24 h, cells were starved overnight and subjected to L-4F treatment in the presence or absence of stimulators. A reporter assay system (Promega, Madison, Wis.) was used for the measurement of luciferase activity.

CT26 cells [3] = assay: CT26 proliferation assay (BrdU incorporation); assay type: cell-based, mouse; settings: Example 5; 10 mg/mL, 48 hours
Procedure: The bHDL were dissolved in H2O.
The peptides were dissolved in H2O.

ID8 cells = settings: cited from earlier work
IL-6 = assay: Plasma IL-6 ELISA; assay type: in vivo, mouse; settings: lung tumor mice; 10 mg/kg/d subcutaneously for 3 weeks; vs control group
Procedure: Interleukin (IL)-6 concentrations were measured in plasma by a competition ELISA according to the manufacture's protocol (Invitrogen).

APC^min/+ mice = APC^min/+ mice study, intestinal tumors; assay type: in vivo; settings: C57BL/6J-APC^min/+ mice; 100 mg/kg/d in mouse chow for 8 weeks
Procedure: (§1) 6-week-old APC^Min/+ male mice on a C57BL/6J background were treated with bHDL 100 mg/kg/day administered in a chow diet. After 8 weeks treatment, mice were sacrificed. The entire intestine was immediately removed, fixed in formalin and 70% ethanol. The intestine was opened and examined under a dissecting microscope to count and measure the tumors.
as §1, with “Six-week-oldAPC^min/+” for “6-week-old APC^Min/+”, “L-4F or sc-4F at” for “bHDL”, “mg/kg/d” for “mg/kg/day”

Akt = assay: Insulin-stimulated phosphorylation of Akt in OV2008 cells, Western blot; assay type: cell-based, human; settings: 10 μg/ml, insulin 200 nM
Procedure: FIGS. 10A-10B. Effect of L-4F on the insulin-stimulated activation of downstream signaling molecules in OV2008 cells. After an overnight starvation, OV2008 cells were treated with L-4F (10 μg/ml) for 1 h, and insulin was added at a final concentration of 200 nM. Cell lysates were collected at various time points and subjected to Western blot analysis. FIG. 10A, L-4F inhibits insulin-stimulated phosphorylation of p70s6 kinase and subsequent HIF-1α expression in OV2008 cells. FIG. 10B, effect of L-4F on insulinstimulated phosphorylation of ERK1/2 and Akt in OV2008 cells.
Western blot analyses were performed as described previously (Gao et al., 2011). In brief, cell lysates were collected in a lysis buffer containing 0.1 MNaCl, 5 mM EDTA, 50 μM sodium orthovanadate, 1% Triton X-100, and protease inhibitor tablet (Roche Diagnostics, Indianapolis, Ind.) in 50 mM Tris buffer, pH 7.5, loaded onto 4 to 12% Bis-Tris gel (Invitrogen), transferred to polyvinylidene difluoride membrane, and incubated with the appropriate antibodies. […]

CT26 cells [4] = settings: BALB/c, mouse, 48 hours
[5] = system: HDL anti-inflammatory properties; settings: 0.43 mg/kg daily, intravenous infusion 7 days or subcutaneously 28 days, patients with coronary heart disease (Watson and colleagues); cited from earlier work
HIF-1α [6] = assay: Immunofluorescence staining of nuclear HIF-1α in OV2008 cells; assay type: cell-based, human
Procedure: Immunofluorescence staining was performed as described previously (Lee et al., 2006). In brief, OV2008 cells were plated onto a glass slip (Thermo Fisher Scientific) in 24-well plates at 4×10^4 cells per well and grown in complete medium overnight. After starvation overnight, cells were subjected to L-4F treatment in the presence or absence of stimulators. Then, cells were fixed in 4% neutral buffered formaldehyde for 25 min at room temperature, permeabilized with 0.5% Triton X-100 in PBS for 10 min, and blocked with 10% normal goat serum, 1% bovine serum albumin, and 0.3 M glycine prepared in PBS for 1 h. Cells were incubated with mouse anti-HIF-1α (1:200) overnight at 4° C. and incubated with Alexa Fluor 568 goat anti-mouse IgG (Invitrogen) for 1 h. Finally, cells were covered with VectaMount solution containing DAPI (Vector Laboratories, Burlingame, Calif.), and images were captured with a fluorescence microscope (Olympus IX70).

[7] = OV2008 cells stimulated first with CoCl2 or insulin, 10 μg/ml

Ac-DWFKAFYDKVAEKFKEAF-NH2 [L-4F, Ac-D-W-F-K-A-F-Y-D-K-V-A-E-K-F-K-E-A-F-NH2]
HIF-1α expression in tumor tissues (HIF-1α [1]): decreased | transcription of downstream HIF-1α target genes (HRE reporter), post-treatment (HIF-1α [2]; [7]): inhibition of the transcription | CoCl2- and insulin-mediated induction of HRE luciferase activity (HIF-1α [2]; OV2008 cells, 10 μg/ml pretreatment 1 h): significantly inhibited | proliferation of CT26 cells, BrdUrd incorporation (CT26 cells [3]): significantly inhibited | ID-8 cell-mediated tumor burden (ID8 cells; C57BL/6J mice, administered subcutaneously or orally, reference (17)): decreased | tumor growth and angiogenesis (ID8 cells; immunocompetent mouse model of ovarian cancer, ID8 (Gao et al., 2011)): inhibited | IL-6 levels in plasma (IL-6): significantly decreased | numbers of tumors of diameter 1-3 mm (APC^min/+ mice): 36.8 | numbers of tumors of diameter >3 mm (APC^min/+ mice): 5 | total tumor numbers in the intestinal tract, percent of the control (APC^min/+ mice): 60% | insulin-stimulated phosphorylation of Akt (Akt): no effect on the phosphorylation of Akt, except at 0.5 h | Cell viability reduced by, compared with control (CT26 cells [4]; 10 μg/mL): more than 20% | Cell viability reduced, compared with control (CT26 cells [4]; 10 mg/mL): more than 25% | HDL anti-inflammatory properties [5]: did not achieve any improvement | nuclear expression of HIF-1α, post-treatment (HIF-1α [6]; [7]): decreased nuclear expression | CoCl2- and insulin-induced accumulation of HIF-1α in nuclei (HIF-1α [6]; OV2008 cells, pretreatment): dramatically reversed
